Source: the OligoGym collection
Values joined by “and” are separate entries in the source; they are usually repeats but may differ in a detail not shown here. Equal values may be shown once. After the bases stand the sugars from the 5' end (letter, count) and the backbone: PS all phosphorothioate, else s phosphorothioate and o phosphodiester by linkage. Methylation of C is not given here. e = 2'-O-(2-methoxyethyl) (MOE); l = locked nucleic acid (LNA); d = 2'-deoxy (DNA)

How the values were obtained:
[1] = molecular target: SNHG14; settings: ASO
[2] = molecular target: DGAT2; settings: ASO
[3] = Mouse Primary Neuronal Cell, 0.005 µM

| Sequence | target mRNA inhibition ([1]; Human Neuronal Cell, 7.5 µM) [%] | target mRNA inhibition ([1]; Human Neuronal Cell, 0.2 µM) [%] | target mRNA inhibition ([1]; Human Neuronal Cell, 1 µM) [%] | further results |
| --- | --- | --- | --- | --- |
| TTATAGCCATTCTATCT (sugars l1 d11 l2 d1 l2, PS) | 40 |  |  |  |
| ACTGATTTCCTTAAAC (sugars l4 d10 l2, PS) |  | 24 | 52 |  |
| CTTTACTCTGCAATACA (sugars l2 d11 l4, PS) |  | 49 | 59 |  |
| TTATTTATACACCATC (sugars l2 d10 l4, PS) |  | 78 | 74 |  |
| TTTTATACCTTTCTTTAACC (sugars l1 d15 l1 d1 l2, PS) | 24 |  |  |  |
| TATTGATTCAATTCCCT (sugars l2 d9 l1 d2 l3, PS) | 51 |  |  |  |
| TTGATTCAATTCCCTTA (sugars lddlldddddddlldll, PS) | 66 |  |  |  |
| AAATTATTTATACACCATCA (sugars ldlllddddddddlddllll, PS) | 68 |  |  |  |
| ACATGTCCCTTTATATT (sugars l4 d11 l2, PS) |  | -15 | -4 | target mRNA inhibition ([1]; Human Neuronal Cell, 5 µM): 9%; target mRNA inhibition [1, 3]: 83.7% |
| CTAATCCTATTCCAAC (sugars l2 d10 l4, PS) |  | 33 | 49 |  |
| ATGCTTCTAACTAACA (sugars l4 d10 l2, PS) |  | 25 | 46 |  |
| TTTACACTTAATTATACTTC (sugars lllddldddddddllldlll, PS) | 22 |  |  |  |
| TTCAGCTTTTAACCAGAGT (sugars l2 d14 l3, PS) | 73 |  |  |  |
| GCACATTCTTTCTATACC (sugars l1 d15 l2, PS) | 25 |  |  |  |
| ATAATCCCATACATCTA (sugars l3 d11 l3, PS) |  | 60 | 69 |  |
| GTTTATACCCTTTCCAAT (sugars ldlldddddddddldlll, PS) | 63 |  |  |  |
| CCAACATAGATCCTCT (sugars l2 d10 l4, PS) |  | 55 | 67 |  |
| TTATCATTTCATATTACT (sugars l4 d12 l2, PS) |  | 16 | 34 |  |
| ATCTCATGACCACCTAA (sugars ldlllddddddddldll, PS) | 66 |  |  |  |
| ACCACCTAAGACCTCA (sugars l2 d11 l3, PS) |  | 45 | 44 |  |
| ATTTCATTAAGTCACC (sugars l2 d10 l4, PS) |  | 46 | 59 |  |
| TCCATTTATTTCCATTTAT (sugars llddlddddddddldldll, PS) | 40 |  |  |  |

| Sequence | target mRNA inhibition ([1]; Human Neuronal Cell, 7.5 µM) [%] | target mRNA inhibition ([1]; Human Neuronal Cell, 0.2 µM) [%] | target mRNA inhibition ([1]; Human Neuronal Cell, 1 µM) [%] | further results |
| --- | --- | --- | --- | --- |
| TTCTGTATACACCATCC (sugars l1 d1 l1 d12 l2, PS) | 62 |  |  |  |
| TCCAACATAGATCCTCT (sugars l2 d11 l4, PS) |  | 45 | 55 |  |
| TTTATACCTTTCTTTAAC (sugars l2 d12 l4, PS) |  | 4 | 21 |  |
| TTCTACTATACTTTCCTCT (sugars lddddlddddddddlddll, PS) | 57 |  |  |  |
| ACTCTCACTGTAACTT (sugars l3 d10 l3, PS) |  | 36 | 44 |  |
| TGAACAACTTCTATCA (sugars l3 d10 l3, PS) |  | 17 | 16 |  |
| TAAAATTATTTATACACCA (sugars lddlllddddddldlllll, PS) | 30 |  |  |  |
| TTACCTACATCTCATACT (sugars l2 d12 l4, PS) |  | -6 | -7 | target mRNA inhibition ([1]; Human Neuronal Cell, 5 µM): 16%; target mRNA inhibition [1, 3]: 95.6% |
| AAATTATTTATACACCATCA (sugars ldllllddddddddldldll, PS) | 70 |  |  |  |
| TTACTCTGCAATACACC (sugars l2 d11 l4, PS) |  | 55 | 57 |  |
| GTTCTACTATACTTTCCT (sugars l1 d2 l1 d12 l2, PS) | 53 |  |  |  |
| TAAGCTCCATATTTAA (sugars l3 d10 l3, PS) |  | 3 | 12 |  |
| ATTGATTCAATTCCCTT (sugars l3 d10 l1 d1 l2, PS) | 70 |  |  |  |
| TACTCTGCAATACACC (sugars l2 d10 l4, PS) |  | 50 | 55 |  |
| TTGATTCAATTCCCTTA (sugars l2 d11 l1 d1 l2, PS) | 60 |  |  |  |
| TACTCTGCAATACACCA (sugars l1 d3 l1 d10 l2, PS) | 54 |  |  |  |
| CTCTACAACAGTCCCA (sugars l3 d11 l2, PS) |  | 53 | 51 |  |
| GCACATTCTTTCTATACC (sugars ldldlldddddddlddll, PS) | 54 |  |  |  |
| AGTTCTACTATACTTTCC (sugars l1 d4 l1 d10 l2, PS) | 49 |  |  |  |
| AAAATCTCAACTACCATTTT (sugars lllldldddddddlddllll, PS) | 14 |  |  |  |
| TTCTGTATACACCATCC (sugars l1 d14 l2, PS) | 46 |  |  |  |
| GATCATTCTCAACAATTAA (sugars lldlllddddddlllddll, PS) | -2 |  |  |  |

| Sequence | target mRNA inhibition ([1]; Human Neuronal Cell, 7.5 µM) [%] | target mRNA inhibition ([1]; Human Neuronal Cell, 0.2 µM) [%] | target mRNA inhibition ([1]; Human Neuronal Cell, 1 µM) [%] | further results |
| --- | --- | --- | --- | --- |
| TTTCCATTTATTTCCATTTA (sugars l2 d2 l1 d12 l3, PS) | 62 |  |  |  |
| TTATAGCCATTCTATCT (sugars ldddlddddddldllll, PS) | 26 |  |  |  |
| AAACTACCCTGCACAA (sugars l3 d10 l3, PS) |  | 22 | 39 |  |
| TTATAGCCATTCTATCT (sugars l2 d1 l1 d11 l2, PS) | 62 |  |  |  |
| TTATTTCCATTTATTTTCA (sugars llddlddddddddldldll, PS) | 66 |  |  |  |
| GAAAATCTCAACTACCATT (sugars l4 d10 l2 d1 l2, PS) | 60 |  |  |  |
| TCCATAGAATTCTTCA (sugars l4 d10 l2, PS) |  | 51 | 43 |  |
| CTGTTTATACCCTTTCCA (sugars l1 d4 l1 d10 l2, PS) | 58 |  |  |  |
| TCTTTCCATTTATTTCCATT (sugars l2 d14 l1 d1 l2, PS) | 46 |  |  |  |
| TATAGCCATTCTATCT (sugars l4 d10 l2, PS) |  | 61 | 67 |  |
| ATATTGATTCAATTCCC (sugars l1 d2 l1 d7 l6, PS) | 51 |  |  |  |
| ATTGATTCAATTCCCTT (sugars l1 d1 l2 d9 l4, PS) | 67 |  |  |  |
| GCTCACACTAATTATT (sugars l2 d10 l4, PS) |  | 25 | 43 |  |
| TTCTTGTTTATCCCAA (sugars l2 d10 l4, PS) |  | 67 | 71 |  |
| ACCCATTTCTAACATT (sugars l4 d10 l2, PS) |  | 29 | 40 |  |
| CTGTATACACCATCCCA (sugars ldddlddddddddldll, PS) | 68 |  |  |  |
| CTCCTTTATGACTCCAA (sugars l4 d11 l2, PS) |  | 41 | 59 |  |
| TTGATTCAATTCCCTTA (sugars l2 d10 l1 d1 l3, PS) | 68 |  |  |  |
| TTTATTTCCATTTATTTTC (sugars ldldlddddddddlldlll, PS) | 53 |  |  |  |
| ATATTGATTCAATTCCC (sugars l1 d1 l3 d10 l2, PS) | 70 |  |  |  |
| TAATCCCATACATCTAT (sugars l2 d11 l4, PS) |  | 50 | 61 |  |
| CCATTTATTTCCATTTATTT (sugars ldddldddddddddldldll, PS) | 56 |  |  |  |

| Sequence | target mRNA inhibition ([1]; Human Neuronal Cell, 7.5 µM) [%] | target mRNA inhibition ([1]; Human Neuronal Cell, 0.2 µM) [%] | target mRNA inhibition ([1]; Human Neuronal Cell, 1 µM) [%] | further results |
| --- | --- | --- | --- | --- |
| ACCAATTATACTTACAA (sugars l3 d11 l3, PS) |  | 21 | 52 |  |
| CCTACATCTCATACTTGC (sugars l3 d12 l3, PS) |  | -39 | -21 | target mRNA inhibition ([1]; Human Neuronal Cell, 5 µM): -27% |
| CAACATTATTAACCACCTTA (sugars l1 d2 l2 d13 l2, PS) | 47 |  |  |  |
| AAAATTATTTATACACCATC (sugars lldddllddddddllldlll, PS) | 63 |  |  |  |
| ATTTACACTTAATTATACTT (sugars ldlllldddddddldlddll, PS) | 45 |  |  |  |
| GAGCTCAGAGACTCAGCCGC (sugars e2 d13 e5, PS) |  |  |  | target mRNA inhibition ([2]; HepG2, 0.12 µM): 89%; target mRNA inhibition ([2]; HepG2, 2.5 µM): 27%; target mRNA inhibition ([2]; HepG2, 10 µM): 42%; target mRNA inhibition ([2]; HepG2, 20 µM): 61% |
| TCCAGGACCCTGGACATGAT (sugars e5 d10 e5, PS) |  |  |  | target mRNA inhibition ([2]; HepG2, 0.12 µM): 50% |
| GCATTGCCACTCCCATTCTT (sugars e5 d10 e5, PS) |  |  |  | target mRNA inhibition ([2]; HepG2, 20 µM): 94% and 91% and 95% |
| ACAGTGGTGATGGGCTTGGA (sugars e5 d10 e5, PS) |  |  |  | target mRNA inhibition ([2]; HepG2, 0.12 µM): 52% |
| CAAGGCTGAGTCTGTGCTGC (sugars e5 d10 e5, PS) |  |  |  | target mRNA inhibition ([2]; HepG2, 0.12 µM): 24% |
| GCACTGCAGGCCACTCCCAG (sugars e5 d10 e5, PS) |  |  |  | target mRNA inhibition ([2]; HepG2, 0.12 µM): 37% |
| GACCCACTGGAGCACTGAGA (sugars e5 d10 e5, PS) |  |  |  | target mRNA inhibition ([2]; HepG2, 0.12 µM): 69% |
| CCTAGGTACAAGTTTCTCCA (sugars e5 d10 e5, PS) |  |  |  | target mRNA inhibition ([2]; HepG2, 2.5 µM): 65%; target mRNA inhibition ([2]; HepG2, 10 µM): 87% |
| AAAGTCTGACATGGTGC (sugars e3 d10 e4, PS) |  |  |  | target mRNA inhibition ([2]; HepG2, 2.5 µM): 48%; target mRNA inhibition ([2]; HepG2, 10 µM): 81% |
| AGCCTGGATGGTGGTTGCAA (sugars e5 d10 e5, PS) |  |  |  | target mRNA inhibition ([2]; HepG2, 2.5 µM): 73%; target mRNA inhibition ([2]; HepG2, 10 µM): 78% |
| CCCACTGGGACATCTGGCCC (sugars e5 d10 e5, PS) |  |  |  | target mRNA inhibition ([2]; HepG2, 2.5 µM): 66%; target mRNA inhibition ([2]; HepG2, 10 µM): 88% |
| TGAGGTTTAGGCTATGGTCT (sugars e5 d10 e5, PS) |  |  |  | target mRNA inhibition ([2]; HepG2, 2.5 µM): 66%; target mRNA inhibition ([2]; HepG2, 10 µM): 77% |
| CCAATGCACCTTGTATTAAA (sugars e5 d10 e5, PS) |  |  |  | target mRNA inhibition ([2]; HepG2, 2.5 µM): 72%; target mRNA inhibition ([2]; HepG2, 10 µM): 92% |
| TCATCTTTCCAGATCCGGAC (sugars e5 d10 e5, PS) |  |  |  | target mRNA inhibition ([2]; HepG2, 2.5 µM): 76%; target mRNA inhibition ([2]; HepG2, 10 µM): 89% |
| ATGAGCTCTCAAGTCTTCCT (sugars e5 d10 e5, PS) |  |  |  | target mRNA inhibition ([2]; HepG2, 2.5 µM): 67%; target mRNA inhibition ([2]; HepG2, 10 µM): 93% |
| CAAAGATATAGTTCCTGGTG (sugars e5 d10 e5, PS) |  |  |  | target mRNA inhibition ([2]; HepG2, 0.12 µM): 61% |
